Measured values reported in patent US7572600B2, “Enzymatic activities in chemokine-mediated inflammation” (Chemocentryx, Inc., priority 2004, dated 2009).
Entries after “also recorded” stand apart in the source; their conditions may differ. One block for each molecule: values may come before it. Where no end group is shown, it is not given here.

Columns and labels:
FPRL1 = target: T1, FPRL1 (Homo sapiens, UniProt P25090); assay: Competition binding with 125I-WKYMVm on human monocytes; design: endogenous in cells; host or cells: human CD14+ monocytes from buffy coats
T1 sequence (P25090 1-351): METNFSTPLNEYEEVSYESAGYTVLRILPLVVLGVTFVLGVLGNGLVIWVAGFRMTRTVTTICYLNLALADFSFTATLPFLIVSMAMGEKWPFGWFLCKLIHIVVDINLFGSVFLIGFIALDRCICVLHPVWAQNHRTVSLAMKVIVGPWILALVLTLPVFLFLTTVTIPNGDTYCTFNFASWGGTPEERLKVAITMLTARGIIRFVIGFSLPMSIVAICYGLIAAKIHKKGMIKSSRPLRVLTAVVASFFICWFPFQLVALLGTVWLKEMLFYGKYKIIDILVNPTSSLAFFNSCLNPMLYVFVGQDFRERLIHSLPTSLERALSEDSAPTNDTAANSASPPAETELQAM

leukocytes (neutrophils) = assay: Leukocyte recruitment to skin after intradermal injection; type: in vivo; details: 2 μg intradermally, c57Bl/6 and BALB/c mice, 6 hours
Description: Immunohistochemistry. BALB/c and c57Bl/6 mice were injected intradermally with 50 μl sterile saline with or without 2 μg SHAAGtide. 6 hours later, mice were euthanized and the skin surrounding the injection site was excised. After immersion in 10% neutral-buffered formalin for 18-24 hours, the skin biopsy was processed in graded alcohols and embedded in paraffin wax. 5 μm-wide sections were cut on a Leica microtome, transferred to glass slides, deparaffinized in xylenes, and hydrated through graded alcohols. The sections were either stained with hematoxylin and eosin (Sigma, St. Louis Mo.) or stained immunohistochemically for neutrophils as follows. The slides were immersed in Target Retrieval solution (Dako, Carpinteria Calif.) for 20 minutes at 90° C., rinsed with water and immersed in tris-buffered saline (TBS) containing 2% bovine serum albumin for 20 minutes. The sections were then exposed to rat anti-mouse neutrophil monoclonal antibody (Accurate Chemical and Scientific, Westbury N.Y.) or rat IgG2a isotype control antibody (BD Pharmingen, San Diego Calif.) for 1 hour, rinsed with TBS, and exposed to biotinylated goat anti-rat Ig (Dako) for 30 minutes. The sections were then rinsed with TBS, stained with the ABC-AP and fuchsin reagents (both from Dako), rinsed with water, and counterstained with hematoxylin for 2 minutes. […]

CCR1 [1] = target: T2, CCR1 (Homo sapiens, UniProt P32246); assay: Competition binding with 125I-MIP-1α on L1.2-CCR1 cells; design: endogenous in cells; host or cells: human CD14+ monocytes from buffy coats
T2 sequence (P32246 1-355): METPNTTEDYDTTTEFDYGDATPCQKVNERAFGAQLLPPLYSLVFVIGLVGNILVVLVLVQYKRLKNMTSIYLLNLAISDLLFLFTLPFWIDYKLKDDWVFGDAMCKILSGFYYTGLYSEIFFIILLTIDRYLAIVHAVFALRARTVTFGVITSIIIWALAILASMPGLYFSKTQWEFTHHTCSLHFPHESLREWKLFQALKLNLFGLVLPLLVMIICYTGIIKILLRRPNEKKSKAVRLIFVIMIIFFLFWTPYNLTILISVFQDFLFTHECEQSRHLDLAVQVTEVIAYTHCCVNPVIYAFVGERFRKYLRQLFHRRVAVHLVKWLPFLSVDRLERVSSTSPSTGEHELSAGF
Description: Binding assay. Competition binding studies were conducted using monocytes, L1.2-CCR1 or L1.2-FPRL1 cells. Cells were incubated for 3 hr at 4° C. with ^125I-MIP-1α (final concentration ˜0.05 nM) or ^125I-WKYMVm (final concentration ˜0.01 nM) in buffer (25 mM HEPES, 140 mM NaCl, 1 mM CaCl2, 5 mM MgCl2 and 0.2% BSA, adjusted to pH 7.1) in the presence of increasing amounts of unlabeled chemokine. Reactions were aspirated onto PEI-treated GF/B glass filters using a cell harvester (Packard). Filters were washed twice (25 mM HEPES, 500 mM NaCl, 1 mM CaCl2, 5 mM MgCl2, adjusted to pH 7.1). Scintillant (MicroScint-10; 35 μl) was added to the filters and counted in a Packard Topcount scintillation counter. Data were analyzed and plotted using Prism (GraphPad Software, San Diego, Calif.).

CCR1 [2] = target: T2, CCR1; assay: Calcium mobilization in murine L1.2 cells expressing human CCR1; type: cell-based; design: expressed in transfected cells; host or cells: murine L1.2 cells (G-418 selected transfectant); details: L1.2 cells stably expressing human CCR1
Description: Calcium Mobilization Assay. Cells were loaded for 1 hour with 2 μM indo-1/AM dye (Molecular Probes, Eugene, Oreg.) in culture medium, then washed with 10 ml PBS and resuspended at 10^6/ml in HBSS containing 1% FBS. Cytosolic calcium responses were determined using a Photon Technology International (Lawrenceville, N.J.) fluorimeter, with excitation at 350 nm and dual emission at 400 and 490 nm. Alternatively, cells were loaded with 5 μg/ml Fluo-4 AM dye (Molecular Probes, Eugene, Oreg.), then washed and analyzed on a Fluorometric Imaging Plate Reader 384 (FLIPR^384 Molecular Devices, Sunnyvale, Calif.), with 505 nm excitation and 530 nm emission.
Receptor signaling assay. For individual measurements, cells were loaded for 45 min at room temperature with 2 μM indo-1/AM (Invitrogen, Carlsbad Calif.) in culture medium, then washed with 10 ml PBS and resuspended at 10^6 cells/ml in HBSS containing 0.1% BSA. Cytosolic calcium levels were determined using a Photon Technology International fluorimeter (excitation at 350 nm, ratio of dual emission at 400 and 490 nm). For measuring calcium dose responses, cells were analyzed with a Fluorometric Imaging Plate Reader 384 (FLIPR^384) (Molecular Devices, Sunnyvale, Calif.). Cells were loaded for 1 hr at 37° C. with 5 μM fluo-4 in HBSS with 0.1% BSA, then washed, transferred to black-wall 96-well plates, and subsequently excited at 505 nm with emission recorded at 530 nm with a standard protocol provided by the manufacture. Cells were stimulated with agonists 20 s after the monitoring of fluorescence began. Data were analyzed and plotted in arbitrary units of fluorescence using Prism. To ensure that responses were specific to FPRL1, we utilized a selective small-molecule antagonist of human FPRL1, generated by ChemoCentryx, which was optimized from a high throughput compound library screening approach.

- IC50 (FPRL1): 10 nM
Molecule: MLWRRKIGPQMTLSHAAG [SHAAGtide]
- mice with recruitment of leukocytes (primarily neutrophils) into the subcutis region of the dermis (leukocytes (neutrophils)): 6 of 6
- inhibition of 125I-MIP-1α binding (CCR1 [1]): unable to inhibit binding; also recorded: does not bind CCR1

B1: CCL23β Δ24: truncated form of CCL23β lacking the 24-residue N-terminal domain, beginning with the SHAAGtide insertion (protein, listed as Homo sapiens)
chain: MLWRRKIGPQMTLSHAAGFHATSADCCISYTPRSIPCSLLESYFETNSECSKPGVIFLTKKGRRFCANPSDKQVQVCMRMLKLDTRIKTRKN
- calcium mobilization in the CCR1 transfectant (CCR1 [2]): effective at inducing calcium mobilization
